Measured values as given in patent publication US11230711B2, “Inhibition of LET7I as a means to enhance the protective effect of progesterone against stroke” (UNIVERSITY OF NORTH TEXAS HEALTH SCIENCE CENTER, priority 2017, dated 2022).

Experiments:
[1] = test system: let-7i; test: let-7i expression in the penumbra of the ischemic brain after MCAo (qRT-PCR); type: in vivo, mouse; settings: MCAo mice; day 7 up to 14 days following stroke; FIG. 11E
Description: (FIG. 11A) Representative immunoblots probed for Pgrmc1, pro- and mature-BDNF. (FIG. 11B) Quantitation graph of relative Pgrmc1 protein ratio to Gapdh (n=4-5 per group). (FIG. 11C) Quantitation graph of relative pro-BDNF protein ratio to Gapdh (n=4-5 per group). (FIG. 11D) Quantitation graph of relative mature BDNF protein ratio to Gapdh (n=4-5 per group). (FIG. 11E) Quantitation graph of relative let-7i expression in ischemic brain (n=4-5 per group). n.s: not significant, ** P<0.01 and *P<0.05 compared to sham, and #P<0.05 compared to P4+scrambled. Data are presented as the mean±SEM.
For miRNA expression measurements, total RNA (10 ng) was reverse transcribed into cDNA in a total volume of 15 μl using the microRNA cDNA Archive Kit (ThermoFisher Scientific) according to the manufacturer's instructions. The reaction mixture contained water, 2× quantitative PCR Master Mix (Eurogentec), and 20× Assay-On-Demand for each target gene. A separate reaction mixture was prepared for the endogenous control, U6. The reaction mixture was aliquoted in a 96-well plate, and cDNA added to give a final volume of 20 μl. Each sample was analyzed in triplicate. The comparative cycle threshold (Ct) method (2^−ΔΔCt) was used to calculate the relative changes in target miRNA expression.
All mice were first ovariectomized to deplete endogenous ovarian hormone levels. […]

[2] = test system: C57BL/6J mice; test: Wire suspension (wire hanging) test of grip strength / motor function after MCAo; type: in vivo, mouse; settings: Example 2, FIG. 13
Protocol: Animals will be trained 2 days before MCAo procedure and will be tested on day 3, 7, and 14 post stroke. Animals will be allow to suspend their bodies on a single wire stretched between 2 posts 50 cm above the ground. Between the posts, a soft pillow will be placed to avoid injury in case of a fall. Training will be achieved simply with several rounds of habituation and trials. In the actual testing phase, mice will be tested 3 times and average performance is recorded as final values.
All mice were first ovariectomized to deplete endogenous ovarian hormone levels. Two weeks after ovariectomy (OVX), P4 pellets were subcutaneously implanted into these animals to replenish their progesterone levels. In parallel, different groups received cholesterol pellet implantations to serve as vehicle control. One week after pellet implantation, stroke was induced in these mice using middle cerebral artery occlusion (MCAo) procedure. In parallel, different groups received sham operation (non-stroke). […]
wire suspension test: In ordered to assess motor function recovery with different treatments, wire suspension test, a test of grip strength and endurance, was used, as described elsewhere (58). […] The latency for animals to fall off the wire was recorded. […] Performances of these mice was evaluated at day 3, 7 and 14 post stroke.

## CC(=O)[C@H]1CC[C@H]2[C@@H]3CCC4=CC(=O)CC[C@]4(C)[C@H]3CC[C@]12C [P4, progesterone]
[1]
  stroke-induced increase in let-7i expression in the penumbra: did not attenuate
[2]; day 7
  motor function recovery (wire suspension test): partial recovery
[2]; day 14
  motor function recovery (wire suspension test): partial recovery
